# Literature values in US20260240770A1, “LIQUID FORMULATION COMPRISING TRILOSTANE” (NORBROOK LABORATORIES LIMITED, priority 2023, published 2026).
# Details: low water solubility and high membrane permeability
structure (smiles),measurement,value
"C[C@]12CC[C@H]3[C@@H](CC[C@@]45O[C@@H]4C(O)=C(C#N)C[C@]35C)[C@@H]1CC[C@@H]2O [Trilostane, 4α,5-epoxy-3,17β-dihydroxy-5α-androst-2-ene-2-carbonitrile]",BCS class,Class Two
